The record followed here is patent US20230272012A1, “PEPTIDES AND METHODS OF USE” (REALTA LIFE SCIENCES, INC., priority 2020, published 2023).

Entries after “also recorded” stand apart in the source; their conditions may differ. Bridge positions count the residues as written; N and C are the ends. Square brackets hold non-standard residues; d marks the D form. Ends that are not written are not given here. Peptide text beside a SMILES is read from it. R8 = C=CCCCCCC[C@@](C)(N)C(=O)O; S5 = C=CCCC[C@](C)(N)C(=O)O; Sar = CNCC(=O)O

For one experiment, the target named is T1, C1q (Homo sapiens, UniProt P02745+P02746+P02747).
T1 construct: purchased Complement Technology (Tyler, Tex.)
T1 sequence (P02745 23-245): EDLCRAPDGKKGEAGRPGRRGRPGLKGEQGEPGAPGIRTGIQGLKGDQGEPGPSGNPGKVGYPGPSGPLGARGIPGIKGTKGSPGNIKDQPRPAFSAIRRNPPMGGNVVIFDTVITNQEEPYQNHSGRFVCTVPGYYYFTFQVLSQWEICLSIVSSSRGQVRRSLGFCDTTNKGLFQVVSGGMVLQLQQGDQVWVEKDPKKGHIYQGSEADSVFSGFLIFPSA
T1 sequence (P02746 28-253): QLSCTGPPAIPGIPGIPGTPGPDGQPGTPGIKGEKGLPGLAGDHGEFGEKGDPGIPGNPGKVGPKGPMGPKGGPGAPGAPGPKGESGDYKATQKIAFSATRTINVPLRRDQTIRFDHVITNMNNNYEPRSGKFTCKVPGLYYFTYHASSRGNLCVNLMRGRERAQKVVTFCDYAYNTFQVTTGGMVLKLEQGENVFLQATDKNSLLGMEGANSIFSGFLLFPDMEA
T1 sequence (P02747 29-245): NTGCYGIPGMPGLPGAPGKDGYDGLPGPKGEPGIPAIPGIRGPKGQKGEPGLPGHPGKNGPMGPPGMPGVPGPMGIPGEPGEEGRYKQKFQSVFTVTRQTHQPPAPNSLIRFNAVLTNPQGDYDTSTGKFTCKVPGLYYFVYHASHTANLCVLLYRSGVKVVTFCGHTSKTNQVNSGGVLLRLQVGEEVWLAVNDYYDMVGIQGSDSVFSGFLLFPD
As to the kind of experiment: C1q binding ELISA-type assay. The settings on record: for binding to C1q: plate-bound C1q, antibody detection. Here is the method:
The C1q binding assay was performed as previously described. Briefly, an Immunlon-2 HB ELISA plate was coated with 1 μg/ml C1q in bicarbonate buffer overnight at 4° C. The plates were washed with PBS-T (phosphate buffered saline+0.1% Tween) and then blocked with 1% gelatin/PBS for 2 hours at room temperature. After washing, the plates were incubated with the peptides starting at 2.5 mg/ml and then serially diluted in 1% gelatin/PBS for 1 hour at room temperature followed by washing. Plates were then probed with rabbit antibody raised against the lead peptide […] (SEQ ID NO: 2) that lacked PEGylation at 1:1000 in 1% gelatin/PBS for 1 hour at room temperature followed by a goat anti-rabbit HRP (Sigma Aldrich, St Louis, Mo.) at 1:1,000 in 1% gelatin/PBS for 1 hour at room temperature with a washing step in between. After addition of TMB substrate solution to the wells, the reaction was stopped using 1N H2SO4, and the plate read on a BioTek Synergy HT plate reader at 450 nm.
The astrovirus capsid protein and the PIC1 molecules derived from it inhibit classical complement pathway activation by binding to the pattern recognition molecule C1q. The inventors next tested peptide variant binding to C1q in an ELISA-type assay in which C1q is used as the capture substrate and bound peptide detected with a rabbit polyclonal antibody against the peptide portion of PA-dPEG24 ([…]-d24; SEQ ID NO: 3). Binding curves were derived for the stapled and D-amino acid peptides based on the PA-I8Sar and PA-C9Sar (FIG. 6A-6D) backbone, from which half-maximal binding concentrations were calculated (FIGS. 2A and B, respectively). […] For the D-amino acid variants, all peptides in which C1q binding was detected, had variable but increased binding to C1q compared to PA-I8Sar (FIG. 2A). For the peptides based on the PA-C9Sar backbone, with the exception of PA-0148, C1q was bound to the same degree or greater than the parent peptide (FIG. 2B).
(§1) The inventors also assessed the ability of RLS-0127* and RLS-0133* to inhibit MPO activity as determined by inhibition of oxidation of TMB in a plate-based assay. […] Additionally, the inventors assessed the ability of RLS-0127* and RLS-0133* to bind C1q in a plate-based assay in which C1q is coated on the plate and increasing amounts of the peptides are added, followed by primary antibody to the peptides and secondary antibody conjugated to HRP. The plate was then incubated with TMB to give a […] signal that is detected at a wavelength of 450 nm in a plate reader.
For orientation: In an ELISA, binding on a coated surface is turned into a signal by an enzyme label.

The target of a further experiment is T2, MPO (Homo sapiens, UniProt P05164).
T2 construct: purchased Lee BioSolutions (Maryland Heights, Mo.)
T2 sequence (P05164 49-745): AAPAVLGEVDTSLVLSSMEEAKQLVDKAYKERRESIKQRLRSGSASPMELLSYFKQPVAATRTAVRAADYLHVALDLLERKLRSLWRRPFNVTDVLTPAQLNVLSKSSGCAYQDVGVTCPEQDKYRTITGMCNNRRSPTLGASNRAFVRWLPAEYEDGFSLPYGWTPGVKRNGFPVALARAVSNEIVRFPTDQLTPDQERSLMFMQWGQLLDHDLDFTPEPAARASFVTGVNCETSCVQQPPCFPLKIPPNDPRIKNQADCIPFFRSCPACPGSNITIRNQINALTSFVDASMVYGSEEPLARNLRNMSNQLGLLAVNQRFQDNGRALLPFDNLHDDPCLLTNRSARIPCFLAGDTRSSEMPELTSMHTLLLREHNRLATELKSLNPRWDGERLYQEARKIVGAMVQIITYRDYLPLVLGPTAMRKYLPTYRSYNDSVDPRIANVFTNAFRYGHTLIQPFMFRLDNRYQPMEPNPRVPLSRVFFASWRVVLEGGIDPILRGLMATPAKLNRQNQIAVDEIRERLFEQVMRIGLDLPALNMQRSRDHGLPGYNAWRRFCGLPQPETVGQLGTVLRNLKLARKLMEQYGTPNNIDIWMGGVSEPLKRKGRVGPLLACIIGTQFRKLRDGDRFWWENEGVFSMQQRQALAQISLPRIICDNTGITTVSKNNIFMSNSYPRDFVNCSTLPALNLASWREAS
As to the kind of experiment: MPO activity assay (TMB oxidation). The settings on record: for inhibition of MPO peroxidase activity (TMB oxidation), dose response: purified human MPO, increasing amounts of peptide. The experiment is classed as biochemical. Here is the method: The MPO activity assay was performed as previously described. Briefly, peptides were diluted to 12 mg/ml and serially titrated in a 96 well plate at a volume of 0.02 ml. MPO was diluted to 20 μg/ml and 0.02 ml was added to the titrated peptides. TMB (3,30,5,50-tetramethylbenzidine) (0.1 ml) was added to each well for 2 minutes, followed by 0.1 ml of 2.5 N H2SO4 for another 2 minutes, and then read on a 96 well plate reader (BioTek) at 450 nm.
as §1

Experiment [1] relates to purified human Pan T-cells. As to the kind of experiment: T-cell exhaustion protocol (Dynabeads re-stimulation). The experiment is classed as cell-based. As to conditions: peptides 2 mg/ml at each stimulation; for IL-2 signal at stimulation 2: supernatant ELISA.

With `CC[C@H](C)[C@H](N)C(=O)N[C@]1(C)CCCCCCC=CCCC[C@@](C)(C(=O)N[C@@H](CS)C(=O)N[C@@H](CCC(N)=O)C(=O)N[C@@H](CCC(=O)O)C(=O)N[C@@H](CCCNC(=N)N)C(=O)N[C@@H](C)C(=O)N[C@@H](C)C(=O)O)NC(=O)CN(C)C(=O)[C@@H]2CCCN2C(=O)[C@H](CCC(=O)O)NC(=O)[C@H](CC(C)C)NC(=O)[C@H]([C@@H](C)CC)NC(=O)[C@H](CC(C)C)NC1=O` [PA-0115, IR8LILEP(Sar)S5CQERAA] (H-I[R8]LILEP[Sar][S5]CQERAA-OH; staple 2-9), the “binding to C1q compared with PA-I8Sar” value at C1q (half-maximal binding from binding curves) is “markedly increased binding to C1q; also recorded: enhanced activity”. The “MPO inhibition compared with PA-I8Sar” value on MPO (half-maximal values from dose-response curves) is on record as “enhanced activity”. For the same compound, the “IL-2 signal at stimulation 2” value in experiment [1] is on record as “did not”.
Turning to `CC[C@H](C)[C@H](N)C(=O)N[C@@H](C)C(=O)N[C@@H](CC(C)C)C(=O)N[C@H](C(=O)N[C@@H](CC(C)C)C(=O)N[C@@H](CCC(=O)O)C(=O)N1CCC[C@H]1C(=O)N(C)CC(=O)N[C@@H](CS)C(=O)N[C@@]1(C)CCCC=CCCC[C@@](C)(C(=O)N[C@@H](C)C(=O)O)NC(=O)[C@H](CCCNC(=N)N)NC(=O)[C@H](CCC(=O)O)NC(=O)[C@H](CCC(N)=O)NC1=O)[C@@H](C)CC` [PA-0117, IALILEP(Sar)CS5QERS5A] (H-IALILEP[Sar]C[S5]QER[S5]A-OH; staple 10-14), the “binding to C1q” value at C1q was “dose-dependent binding”. Also, the “Caspase 3/7 levels” value in experiment [1] (eighth day) is “very low to undetectable levels of Caspase 3/7”. The “IL-2 signal at stimulation 2” value in experiment [1] is given as “showed an IL-2 signal at stimulation 2”.
“IALILEP(Sar)CCQERA (IALILEP[Sar]CCQERA; cysteine pairing not given here) [RLS-0133*]”: the “inhibition of MPO peroxidase activity (TMB oxidation), dose response” value with MPO was “dose-dependently inhibited TMB oxidation; also recorded: inhibit complement activation and MPO peroxidase activity”. Besides, the “IL-2 signal at stimulation 2” value in experiment [1] is recorded as “did not”.
As to “IALILEP(Sar)dCCQERRA (IALILEP[Sar][dC]CQERRA; cysteine pairing not given here) [RLS-0127*]”, in the experiment with C1q, the “binding to C1q” value is “bound C1q in a dose-dependent manner; also recorded: binds C1q”. Further, in the experiment with MPO, the “inhibition of MPO peroxidase activity (TMB oxidation), dose response” value was “dose-dependently inhibited TMB oxidation; also recorded: inhibit complement activation and MPO peroxidase activity”. The “IL-2 signal at stimulation 2” value in experiment [1] is on record as “showed an IL-2 signal at stimulation 2”.
